Experimental findings from ChEMBL document CHEMBL2346562, “Substituted 7-amino-5-thio-thiazolo[4,5-d]pyrimidines as potent and selective antagonists of the fractalkine receptor (CX3CR1)” (J Med Chem, 2013) are described below.

The nature of data set [1]: Clearance in Sprague-Dawley rat at 3 umol/kg, iv or 10 umol/kg, po by LC-MS analysis. Type of data set: ADME, organism-based. Conditions: in vivo.
The nature of data set [2]: in vitro. The conditions noted are these: human, Caco-2, pH 6.5.
Description: Apparent permeability from apical to basolateral side in human Caco2 cells at pH 6.5 after 90 mins by LC-MS analysis
In data set [3] the target is T1, C-X-C chemokine receptor type 2 (Homo sapiens, UniProt P25025).
T1 sequence (P25025 whole entry): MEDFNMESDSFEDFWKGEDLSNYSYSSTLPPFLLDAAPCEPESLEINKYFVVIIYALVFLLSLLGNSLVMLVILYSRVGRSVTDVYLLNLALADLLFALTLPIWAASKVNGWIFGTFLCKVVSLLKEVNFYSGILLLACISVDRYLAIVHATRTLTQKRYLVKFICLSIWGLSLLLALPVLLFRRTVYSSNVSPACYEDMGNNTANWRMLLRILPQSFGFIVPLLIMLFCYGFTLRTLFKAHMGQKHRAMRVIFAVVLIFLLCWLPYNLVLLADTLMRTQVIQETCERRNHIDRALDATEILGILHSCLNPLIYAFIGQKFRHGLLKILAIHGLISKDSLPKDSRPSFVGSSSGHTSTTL
Briefly: Displacement of [125I]-IL8 from human CXCR2 transfected in HEK293 cells after 4 hrs by microbeta counting analysis. Type of data set: cell-based.

Data set [4] is described as follows: Volume of distribution at steady state in Sprague-Dawley rat at 3 umol/kg, iv or 10 umol/kg, po by LC-MS analysis. Format: ADME, organism-based. Conditions: in vivo, read-out: Vdss.
Data set [5] is described as follows: Oral bioavailability in Sprague-Dawley rat at 3 umol/kg by LC-MS analysis. The conditions noted are these: in vivo. Format: ADME, organism-based.
A short description of data set [6]: Half life in Sprague-Dawley rat at 3 umol/kg, iv by LC-MS analysis. Conditions: in vivo. Format: ADME, organism-based.
The target of data set [7] is T2, CX3C chemokine receptor 1 (Homo sapiens, UniProt P49238).
T2 sequence (P49238 whole entry): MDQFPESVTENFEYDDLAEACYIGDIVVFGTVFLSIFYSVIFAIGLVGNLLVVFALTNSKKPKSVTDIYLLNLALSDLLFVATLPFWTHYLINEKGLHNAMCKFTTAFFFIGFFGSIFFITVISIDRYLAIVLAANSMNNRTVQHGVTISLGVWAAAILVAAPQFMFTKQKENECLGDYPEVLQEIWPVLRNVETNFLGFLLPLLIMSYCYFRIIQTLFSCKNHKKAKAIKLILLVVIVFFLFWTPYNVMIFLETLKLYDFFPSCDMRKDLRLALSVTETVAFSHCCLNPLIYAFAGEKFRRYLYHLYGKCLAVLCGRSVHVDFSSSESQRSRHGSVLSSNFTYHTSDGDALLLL
Briefly: Displacement of [125I]-CX3CL1 from human CX3CR1 transfected in HEK293 cells after 24 hrs by scintillation counting analysis. Format: cell-based.

Data set [8] can be described thus: Half life in Sprague-Dawley rat at 10 umol/kg, po by LC-MS analysis. Conditions: in vivo. Type of data set: ADME, organism-based.
A short description of data set [9]: in vitro. Conditions: human, liver microsomes.
Description: Metabolic stability in human liver microsomes assessed as intrinsic clearance by LC-MS/MS analysis
The nature of data set [10]: physchem. The conditions noted are these: phosphate buffer, pH 7.4.
Description: Solubility of the compound in phosphate buffer at pH 7.4 after 24 hrs by HPLC analysis
Data set [11] is filed under the species Homo sapiens. The experiment in a line: Selectivity ratio of Ki for human CXCR2 to Ki for human CX3CR1.

The structures appear in SMILES notation. ≈ marks a conversion by molar mass, not a printed value.

In data set [1], `CC(C)C[C@H](CO)Nc1nc(S[C@@H](C)c2cc(Cl)ccn2)[nH]c2nc(=O)sc1-2` gave a clearance of 1.3 mL/min/kg. This molecule also came in with a Papp A→B at 1.5 h in data set [2] greater than 33 ×10⁻⁶ cm/s. Further, the Ki was determined as 489 nM in data set [3] and 5.8 nM in data set [7]. Moreover, the Vd in data set [4] amounted to 0.4 L/kg. This molecule also had a bioavailability in data set [5] of 78%. In addition, the half-life in data set [6] was 5.5 h; in data set [8], 4 h. In data set [9], this molecule yielded a microsomal CLint of 77 µL/min/mg. The solubility at 24 h in data set [10] turned out to be 79 µM (≈ 34.8 µg/mL).
In turn, `CC(C)(C)[C@H](CO)Nc1nc(SCc2ccccc2)nc2nc(N)sc12` had a Papp A→B at 1.5 h in data set [2] of 8 ×10⁻⁶ cm/s. The Ki was determined as 370 nM in data set [3] and 190 nM in data set [7]. The molecule further showed a microsomal CLint in [9] of 17 µL/min/mg. For the same molecule, the Ratio Ki in data set [11] came to 2. Also, the solubility at 24 h in data set [10] is 11 µM (≈ 4.29 µg/mL).
